Experimental data published in patent US8039505B2, “Compounds for modulating T-cells” (University of Utah Research Foundation, priority 2007, dated 2011).
Like-named read-outs stand apart in the source and are kept apart here.

Experiment: Pharmacokinetics in male Swiss Albino mouse, intravenous and oral (LC-MS/MS of plasma)
Type: in vivo
Description: The pharmacokinetics of 1H-indole-3-carbaldehyde quinolin-8-ylhydrazone (Compound C3) was evaluated following intravenous (3 mg/kg) and oral (15 mg/kg) solution administration of 1H-indole-3-carbaldehyde quinolin-8-ylhydrazone in male Swiss Albino mouse. The effect of the Test Item, 1H-indole-3-carbaldehyde quinolin-8-ylhydrazone on complete blood count (CBC) was also evaluated. Pharmacokinetic phase consisted of two groups, Group 1 and Group 2. Animals in Group 1 were given intravenous bolus dose in a vehicle containing 5% N,N-dimethylacetamide, 5% CREMOPHOR™ EL and 90% Dextrose solution (5% w/v) and those in Group 2 were given oral solution dose in a vehicle, the composition of which was same as that of intravenous formulation. In addition, the effect of Test Item on complete blood count was evaluated following intravenous and oral dose administration along with its vehicle controls. A total of four groups were used each with 6 mice.
From the pharmacokinetic group, predose samples were collected from 3 animals in each group. Following dose administration terminal blood samples were collected at each of the following time points (in triplicate): 0.083 (only for intravenous), 0.25, 0.5, 1, 2, 4, 8, 12 and 24 hours. At each time point, approximately 500 μL of whole blood was withdrawn from the retro orbital sinus and collected in labeled tubes containing dipotassium EDTA as anticoagulant (20 μL of 200 mM K2 EDTA solution per mL of blood). Plasma was separated by centrifuging the whole blood at about 2500 g for 10 minutes at 4° C. within 1 h of sample collection. Separated plasma was stored below minus 50° C. until bioanalysis. A sensitive LC-MS/MS method was used for the quantitation of 1H-indole-3-carbaldehyde quinolin-8-ylhydrazone. The lower limit of quantitation was 1.04 ng/mL. For CBC evaluation, approximately 500 μL of blood was collected in labeled tubes containing dipotassium EDTA as anticoagulant (10 […]/mL of blood) after 48 h of dose administration from all animals.
A total of 57 mice were divided into an intravenous dose group of 30 mice (Group 1) and oral dose group of 27 mice (Group 2). Animals in Group 1 received intravenous bolus dose via tail vein at 3 mg/kg and animals in Group 2 received oral solution dose via gavage at 15 mg/kg. Three animals were administered the dose for each time point (intravenous: 10 time points; Oral: 9 time points). Terminal blood samples were collected from each mouse under light ether anesthesia and plasma was separated.
Animals in Group 1 were administered an intravenous bolus dose via the tail vein (dosing volume: 6 mL/kg). Animals in Group 2 received oral dose by gavage with an oral dosing needle (dosing volume: 10 mL/kg). Animals in the CBC evaluation group were treated same as above except the animals in control group received vehicle instead of formulation.
Pharmacokinetic group: Predose samples were collected from 3 animals in each group. Following dose administration terminal blood samples were collected at each of the following time points (in triplicate): 0.083 (only for intravenous), 0.25, 0.5, 1, 2, 4, 8, 12 and 24 hours. For each time point, approximately 500 μL of whole blood was withdrawn from the retro orbital sinus and collected in labeled tubes containing dipotassium EDTA as anticoagulant (20 μL of 200 mM K2 EDTA solution per mL of blood). Plasma was separated by centrifuging the whole blood at about 2500 g for 10 minutes at 4° C. within 1 h of sample collection. Separated plasma was stored below minus 50° C. until bioanalysis.
An LC-MS/MS method was developed and employed for the quantitation of 1H-indole-3-carbaldehyde quinolin-8-ylhydrazone in the mouse plasma samples. The samples were prepared for analysis following liquid-liquid extraction using amodiaquin as internal standard. The lower limit of quantitation was 1.04 ng/mL.
Pharmacokinetic parameters were calculated using non-compartmental analysis tool of WINNONLIN™ Enterprise software (Version 5.1.1). […]

[1] = male, Swiss Albino, mouse, plasma, iv, 3 mg/kg, mouse, intravenous bolus 3 mg/kg, N = 3, read-out: Mean plasma concentration
[2] = male, Swiss Albino, mouse, plasma, iv, 3 mg/kg, mouse, intravenous bolus 3 mg/kg, individual mice, LLOQ 1.04 ng/mL, read-out: Individual plasma concentration
[3] = male, Swiss Albino, mouse, plasma, oral, 15 mg/kg, mouse, oral solution 15 mg/kg, N = 3, read-out: Mean plasma concentration
[4] = male, Swiss Albino, plasma, mouse, IV 3 mg/kg
[5] = male, Swiss Albino, plasma, mouse, oral solution 15 mg/kg

concentration at 0.5 h (male, Swiss Albino, mouse, plasma, iv, 3 mg/kg, intravenous bolus 3 mg/kg, N = 3): 292 ng/mL
concentration at 0.083 h (male, Swiss Albino, mouse, plasma, iv, 3 mg/kg, mouse plasma, IV 3 mg/kg, 0.083 h sample, read-out: Initial conc. (repeat analysis)): 47.3 ng/mL
concentration at 0.083 h (male, Swiss Albino, mouse, plasma, iv, 3 mg/kg, mouse plasma, IV 3 mg/kg, 0.083 h sample, read-out: Repeated conc. (repeat analysis)): 75.6 ng/mL
concentration at 0.25 h (male, Swiss Albino, mouse, plasma, iv, 3 mg/kg, mouse plasma, IV 3 mg/kg, 0.25 h samples, read-out: Initial conc. (repeat analysis)): 130 ng/mL
concentration at 0.25 h (male, Swiss Albino, mouse, plasma, iv, 3 mg/kg, mouse plasma, IV 3 mg/kg, 0.25 h samples, read-out: Repeated conc. (repeat analysis)): 200 ng/mL
half-life (male, Swiss Albino, mouse, plasma, iv, 3 mg/kg, mouse, IV 3 mg/kg, read-out: T1/2 (converted)): 1.67 h
half-life (male, Swiss Albino, mouse, plasma, iv, 3 mg/kg, mouse, following intravenous administration 3 mg/kg, read-out: Half-life (converted)): ~1.7 h
concentration at 0.083 h (male, Swiss Albino, mouse, plasma, iv, 3 mg/kg, mouse, intravenous bolus 3 mg/kg, 0.083 h, N = 2, read-out: Mean plasma concentration): 1690 ng/mL
concentration at 0.25 h (male, Swiss Albino, mouse, plasma, iv, 3 mg/kg, mouse, intravenous bolus 3 mg/kg, 0.25 h, N = 3, read-out: Mean plasma concentration): 244 ng/mL
concentration at 0.25 h (male, Swiss Albino, mouse, plasma, iv, 3 mg/kg, mouse, intravenous bolus 3 mg/kg, 0.25 h, individual mice, LLOQ 1.04 ng/mL, read-out: Individual plasma concentration): 200 ng/mL
concentration at 1 h [1]: 147 ng/mL
concentration at 1 h [2]: 116 ng/mL
concentration at 2 h [1]: 65.2 ng/mL
concentration at 2 h [2]: 71.9 ng/mL
concentration at 4 h [1]: 35.9 ng/mL
concentration at 4 h [2]: 42.4 ng/mL
concentration at 8 h [1]: 8.95 ng/mL
concentration at 8 h [2]: 10.1 ng/mL
concentration at 12 h [1]: 1.29 ng/mL
concentration at 12 h (male, Swiss Albino, mouse, plasma, iv, 3 mg/kg, mouse, intravenous bolus 3 mg/kg, individual mice, BLQ = below LLOQ 1.04 ng/mL, read-out: Individual plasma concentration): 1.68 ng/mL
bioavailability (male, Swiss Albino, mouse, plasma, oral, 15 mg/kg, mouse, oral 15 mg/kg vs IV 3 mg/kg, read-out: F, absolute oral solution bioavailability): ~26%
concentration at 0.25 h (male, Swiss Albino, mouse, plasma, oral, 15 mg/kg, mouse, oral solution 15 mg/kg, 0.25 h, N = 3, read-out: Mean plasma concentration): 140 ng/mL
concentration at 1 h [3]: 199 ng/mL
concentration at 2 h [3]: 96.5 ng/mL
concentration at 4 h [3]: 146 ng/mL
concentration at 8 h [3]: 75.3 ng/mL
concentration at 8 h (male, Swiss Albino, mouse, plasma, oral, 15 mg/kg, mouse, oral solution 15 mg/kg, individual mice, LLOQ 1.04 ng/mL, read-out: Individual plasma concentration): 76.7 ng/mL
concentration at 12 h [3]: 8.91 ng/mL
concentration at 0.5 h (male, Swiss Albino, mouse, plasma, oral, 15 mg/kg, oral solution 15 mg/kg, N = 3): 148 ng/mL
half-life (male, Swiss Albino, mouse, plasma, po, 15 mg/kg, mouse, oral solution 15 mg/kg, read-out: T1/2 (converted)): 1.98 h
AUC [4]: 913 ng·h/mL
AUC(0-t) [4]: 909 ng·h/mL
Cmax [4]: 1690 ng/mL
clearance [4]: 54.8 mL/min/kg
Tmax (male, Swiss Albino, plasma, mouse, IV 3 mg/kg, first sampling point): 0.083 h
Vd (male, Swiss Albino, plasma, mouse, IV 3 mg/kg, read-out: Vds. (volume of distribution)): 4.28 L/kg
AUC [5]: 1170 ng·h/mL
AUC(0-t) [5]: 1140 ng·h/mL
Cmax [5]: 199 ng/mL
Tmax [5]: 1 h
Accepted conc. (repeat analysis) (mouse plasma, IV 3 mg/kg, 0.083 h sample): 75.62 c ng/mL
Compound: C(=NNc1cccc2cccnc12)c1c[nH]c2ccccc12 [Compound C3, 1H-indole-3-carbaldehyde quinolin-8-ylhydrazone]
